Results from ChEMBL document CHEMBL1201862, “PubChem BioAssay data set” (2004).
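96-well plates; 48 h exposure; 5 concentrations. Endpoints by linear interpolation between flanking doses. Not reached: highest tested concentration assigned. Abbreviation: GI50, concentration required for 50% inhibition of growth.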 Calls of active or inactive are those of the source. Rule as the data show it: active = GI50 up to about 1.1 µM and inactive = higher.

How the values were obtained:
Test in all cases: growth of human tumour cells (NCI), 48 h
CAKI-1 = system: CAKI-1
COLO 205 = system: COLO 205
HCC 2998 = system: HCC 2998
HOP-92 = system: HOP-92
HT-29 = system: HT-29
K562 = system: K562
KM-20L2 = system: KM-20L2
OVCAR-3 = system: OVCAR-3
OVCAR-5 = system: OVCAR-5
RXF 393 = system: RXF 393
SF-268 = system: SF-268
SR = system: SR
U-251 = system: U-251
A498 = system: A498
HL-60 = system: HL-60
NCI-H460 = system: NCI-H460
SNB-75 = system: SNB-75
Hs-578T = system: Hs-578T
MDA-MB-435 = system: MDA-MB-435
NCI/ADR-RES = system: NCI/ADR-RES

Measured: GI50

CCc1ccc(/C(C)=N/NC(N)=S)cc1
inactive: CAKI-1 70 µM | COLO 205 > 100 µM | HCC 2998 > 100 µM | HOP-92 > 100 µM | HT-29 90.4 µM | K562 57.3 µM | KM-20L2 > 100 µM | OVCAR-3 > 100 µM | OVCAR-5 13.1 µM | RXF 393 47.3 µM | SF-268 > 100 µM | SR > 100 µM | U-251 > 100 µM

Cc1cc(C)nc(NS(=O)(=O)c2ccc(NC(=O)c3cccc4c(Nc5ccc(S(=O)(=O)N=C(N)N)cc5)c5ccccc5nc34)cc2)n1
inactive: A498 > 100 µM | CAKI-1 20.5 µM | COLO 205 37.9 µM | HCC 2998 4.85 µM | HL-60 5.56 µM | HOP-92 19.9 µM | HT-29 37.1 µM | K562 7.6 µM | KM-20L2 34.2 µM | NCI-H460 83.6 µM | OVCAR-3 10.5 µM | OVCAR-5 > 100 µM | RXF 393 15.6 µM | SF-268 22.5 µM | SNB-75 38 µM | U-251 33.9 µM

O=C(CCc1n[nH]c(=S)o1)Nc1cc(Cl)ccc1Cl
inactive: A498 > 100 µM | CAKI-1 > 100 µM | COLO 205 > 100 µM | HCC 2998 > 100 µM | HL-60 30.5 µM | HOP-92 > 100 µM | HT-29 52.8 µM | K562 23.9 µM | KM-20L2 48.2 µM | NCI-H460 51.3 µM | OVCAR-3 > 100 µM | OVCAR-5 > 100 µM | SF-268 56.6 µM | SNB-75 > 100 µM | U-251 34.4 µM

O=C(N/C(=C\c1cccc([N+](=O)[O-])c1)c1nc2ccccc2[nH]1)c1ccccc1
inactive: A498 35.8 µM | CAKI-1 59.4 µM | COLO 205 93.1 µM | HCC 2998 94.4 µM | HOP-92 40.6 µM | HT-29 28.9 µM | K562 50.5 µM | KM-20L2 43.8 µM | NCI-H460 87.1 µM | OVCAR-3 51.2 µM | OVCAR-5 63.4 µM | SF-268 45.3 µM | SNB-75 36.4 µM | SR 37.3 µM | U-251 44 µM

CC(C)(C)NC(=O)NC12CC3CC(CC(F)(C3)C1)C2
inactive: A498 > 100 µM | COLO 205 > 100 µM | HCC 2998 > 100 µM | HL-60 > 100 µM | HOP-92 > 100 µM | HT-29 > 100 µM | K562 > 100 µM | KM-20L2 > 100 µM | NCI-H460 > 100 µM | OVCAR-3 > 100 µM | OVCAR-5 > 100 µM | RXF 393 > 100 µM | SNB-75 52.7 µM | U-251 > 100 µM

COC(=O)C1=C(c2cc(OC)c(OC)c(OC)c2)OC(c2ccc3c(c2)OCO3)C1 (stereo not drawn)
inactive: A498 8.95 µM | CAKI-1 22.6 µM | COLO 205 12.8 µM | HCC 2998 28.4 µM | HOP-92 24.8 µM | HT-29 27.2 µM | K562 9.48 µM | KM-20L2 19.7 µM | NCI-H460 31.7 µM | OVCAR-3 26.9 µM | OVCAR-5 64.4 µM | RXF 393 49 µM | SF-268 56.5 µM | SNB-75 39.4 µM | SR 5.38 µM | U-251 19.6 µM

Nc1ncnc2c1ncn2CCOC(c1ccccc1)P(=O)(O)O (stereo not drawn)
inactive: A498 > 100 µM | CAKI-1 > 100 µM | COLO 205 > 100 µM | HCC 2998 > 100 µM | HL-60 > 100 µM | HT-29 > 100 µM | KM-20L2 > 100 µM | NCI-H460 > 100 µM | OVCAR-3 > 100 µM | OVCAR-5 > 100 µM | RXF 393 > 100 µM | SF-268 > 100 µM | SNB-75 > 100 µM | SR > 100 µM | U-251 > 100 µM

CC(=O)OC12c3ccccc3C1CCCCCC21OCCCO1 (stereo not drawn)
inactive: A498 > 100 µM | CAKI-1 > 100 µM | COLO 205 > 100 µM | HCC 2998 > 100 µM | HL-60 > 100 µM | HT-29 > 100 µM | K562 > 100 µM | KM-20L2 > 100 µM | NCI-H460 > 100 µM | OVCAR-3 > 100 µM | OVCAR-5 > 100 µM | RXF 393 > 100 µM | SF-268 > 100 µM | SNB-75 > 100 µM | SR > 100 µM | U-251 > 100 µM

Cn1c(=O)c2sc3c4sc5c(=O)n(C)c6ccccc6c5c4sc3c2c2ccccc21
inactive: A498 > 100 µM | CAKI-1 > 100 µM | COLO 205 > 100 µM | HCC 2998 > 100 µM | HL-60 > 100 µM | HOP-92 90.8 µM | HT-29 > 100 µM | Hs-578T 56.5 µM | K562 > 100 µM | MDA-MB-435 > 100 µM | NCI-H460 > 100 µM | NCI/ADR-RES > 100 µM | OVCAR-3 > 100 µM | OVCAR-5 > 100 µM | RXF 393 12.6 µM | SF-268 > 100 µM | SNB-75 42.6 µM | SR 66.4 µM | U-251 47.5 µM

Cc1ccc(C2=C(c3ccc(C)cc3)C(c3ccc(C)cc3)=C(c3ccc(C)cc3)C2=O)cc1
inactive: A498 > 100 µM | HT-29 > 100 µM | K562 > 100 µM | KM-20L2 > 100 µM | NCI-H460 > 100 µM | OVCAR-5 > 100 µM | RXF 393 > 100 µM | SF-268 > 100 µM | SNB-75 > 100 µM | SR > 100 µM | U-251 > 100 µM

CCOc1ccc(C2=NN(CC)C(=O)C(C3C(=O)N(c4ccccc4)N=C3C)C2)cc1 (stereo not drawn)
inactive: A498 > 100 µM | CAKI-1 > 100 µM | COLO 205 > 100 µM | HCC 2998 > 100 µM | HL-60 > 100 µM | HOP-92 > 100 µM | HT-29 > 100 µM | K562 > 100 µM | KM-20L2 > 100 µM | NCI-H460 > 100 µM | OVCAR-3 > 100 µM | OVCAR-5 > 100 µM | RXF 393 > 100 µM | SF-268 > 100 µM | U-251 > 100 µM

CC(CC(=O)N1C(=O)C(C)(C)[C@@H](O)[C@H]1CC(C)C(Cl)(Cl)Cl)C(Cl)(Cl)Cl (stereo partly drawn)
inactive: A498 > 100 µM | CAKI-1 > 100 µM | COLO 205 > 100 µM | HCC 2998 > 100 µM | HL-60 > 100 µM | HOP-92 > 100 µM | HT-29 > 100 µM | K562 > 100 µM | KM-20L2 > 100 µM | NCI-H460 > 100 µM | OVCAR-3 > 100 µM | SF-268 > 100 µM | SNB-75 > 100 µM | U-251 > 100 µM

CC1(C)OB(O)OC1(C)C
inactive: A498 > 100 µM | CAKI-1 > 100 µM | COLO 205 > 100 µM | HCC 2998 > 100 µM | HL-60 > 100 µM | HT-29 > 100 µM | K562 > 100 µM | KM-20L2 > 100 µM | NCI-H460 > 100 µM | OVCAR-3 > 100 µM | OVCAR-5 > 100 µM | RXF 393 > 100 µM | SF-268 > 100 µM | SNB-75 > 100 µM
